We go through 27 compounds from patent US9273046B2, “Fused tricyclic compounds as Raf kinase inhibitors” (BeiGene, LTD., priority 2011, dated 2016).

In one assay the target is B-Raf (V600E) (Homo sapiens (Human), UniProt P15056, V600E). Kind of assay: Raf IC50 assay, time-resolved fluorescence energy transfer (TR-FRET), B-Raf. It is filed as biochemical. As to the method: The enzyme was incubated with the compounds at room temperature for 60 minutes and the reactions were initiated by the addition of ATP and GST-MEK1. […] Plates were sealed and incubated at room temperature for 2 hours, and then the TR-FRET signals were read on BMG PHERAstar FS instrument. The IC50 for each compound was calculated by non linear regression by Graphpad Prism software.
Sequence of B-Raf (V600E) (P15056 whole entry V600E): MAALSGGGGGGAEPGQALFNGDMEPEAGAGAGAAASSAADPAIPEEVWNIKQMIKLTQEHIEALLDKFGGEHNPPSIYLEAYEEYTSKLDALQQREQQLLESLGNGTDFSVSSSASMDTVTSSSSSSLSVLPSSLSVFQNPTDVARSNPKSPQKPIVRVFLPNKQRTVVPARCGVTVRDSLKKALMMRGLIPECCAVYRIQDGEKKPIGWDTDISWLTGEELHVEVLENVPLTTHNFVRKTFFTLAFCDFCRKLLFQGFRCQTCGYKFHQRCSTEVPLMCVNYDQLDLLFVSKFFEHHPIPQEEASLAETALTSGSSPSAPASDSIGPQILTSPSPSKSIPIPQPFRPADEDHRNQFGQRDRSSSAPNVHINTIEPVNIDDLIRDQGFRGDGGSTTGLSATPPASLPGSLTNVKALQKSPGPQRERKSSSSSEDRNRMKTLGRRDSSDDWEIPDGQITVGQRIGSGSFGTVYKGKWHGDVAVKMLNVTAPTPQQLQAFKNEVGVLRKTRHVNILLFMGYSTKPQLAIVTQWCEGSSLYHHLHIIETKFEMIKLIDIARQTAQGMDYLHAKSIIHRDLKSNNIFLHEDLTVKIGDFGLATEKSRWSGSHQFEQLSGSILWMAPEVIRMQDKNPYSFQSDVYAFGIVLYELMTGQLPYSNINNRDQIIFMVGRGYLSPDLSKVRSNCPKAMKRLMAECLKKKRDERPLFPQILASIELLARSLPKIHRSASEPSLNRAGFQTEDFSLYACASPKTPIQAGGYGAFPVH
On the technique in general: In TR-FRET formats the signal depends on donor and acceptor labels being close together.

A further assay deals with C-Raf (Y340D/Y341D) (Homo sapiens (Human), UniProt P04049, Y340D/Y341D). Kind of assay: Raf IC50 assay, time-resolved fluorescence energy transfer (TR-FRET), C-Raf. It is filed as biochemical. The settings on record: 0.5 nM C-Raf, 0.1 mM ATP, GST-tagged MEK1 substrate, 60 min preincubation. The method, then:
The assay was carried out in reactions (10 μL) containing 0.0625 nM B-Raf or 0.5 nM C-Raf, 25 mM Tris pH7.4, 10 mM MgCl2, 0.5 mM EGTA, 0.5 mM […], 5 mM beta-glycerophosphate, 0.01% Triton X-100, 2.5 mM DTT, 0.1% BSA, 0.1 mM ATP, 13.7 nM GST-tagged MEK1 (Full-length protein with K97R mutation, recombinant protein purified from bacterial expression system) and 0-5 μM compounds disclosed herein (final concentration of 1% DMSO). The enzyme was incubated with the compounds at room temperature for 60 minutes and the reactions were initiated by the addition of ATP and GST-MEK1. After incubating at room temperature for 60 minutes, an equal volume of stop buffer containing 25 mM Tris pH7.4, 400 mM KF, 50 mM EDTA, 0.01% BSA, 0.01% Triton X-100, 1 test of Eu3+ Cryptate-conjugated rabbit polyclonal antibody anti-Phospho MEK1/2 (Ser217/221) and 1 test of d2-conjugated mouse monoclonal antibody anti-glutathione S-transferase was added to stop the reactions. Plates were sealed and incubated at room temperature for 2 hours, and then the TR-FRET signals were read on BMG PHERAstar FS instrument. The IC50 for each compound was calculated by non linear regression by Graphpad Prism software.

Where [1] appears, read: 0.0625 nM B-Raf, 0.1 mM ATP, GST-tagged MEK1 substrate, 60 min preincubation, read-out: B-Raf (V600E) IC50.

Like-named read-outs stand apart in the source and are kept apart here. Where only a bound is given, the exact number is not on record here.

Sequence of C-Raf (Y340D/Y341D) (P04049 whole entry Y340D/Y341D): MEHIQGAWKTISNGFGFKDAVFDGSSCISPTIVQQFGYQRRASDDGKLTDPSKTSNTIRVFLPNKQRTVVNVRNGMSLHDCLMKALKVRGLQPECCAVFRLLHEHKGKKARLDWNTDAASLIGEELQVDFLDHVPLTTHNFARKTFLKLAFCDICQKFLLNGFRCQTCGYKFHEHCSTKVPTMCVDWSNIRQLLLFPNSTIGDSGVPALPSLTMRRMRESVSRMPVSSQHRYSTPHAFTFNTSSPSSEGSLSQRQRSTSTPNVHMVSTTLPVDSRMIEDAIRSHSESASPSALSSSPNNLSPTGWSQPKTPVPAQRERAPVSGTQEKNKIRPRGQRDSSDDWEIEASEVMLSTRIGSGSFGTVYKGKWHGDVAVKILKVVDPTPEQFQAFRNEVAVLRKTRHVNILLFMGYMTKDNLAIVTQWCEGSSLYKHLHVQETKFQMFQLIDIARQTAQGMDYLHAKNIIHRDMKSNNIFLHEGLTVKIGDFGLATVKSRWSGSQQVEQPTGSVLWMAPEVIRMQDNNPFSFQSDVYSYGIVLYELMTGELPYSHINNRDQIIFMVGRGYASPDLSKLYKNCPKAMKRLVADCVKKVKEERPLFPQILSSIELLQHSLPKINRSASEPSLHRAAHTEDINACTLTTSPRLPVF

On to `O=C1CCc2c(Oc3ccc4c(c3)C3C(C4)C3c3nc4ccccc4[nH]3)ccnc2N1` (racemic) [Compound 1.1, (±)-exo-5-((1-(1H-benzo[d]imidazol-2-yl)-1,1a,6,6a-tetrahydrocyclopropa[a]inden-3-yl)oxy)-3,4-dihydro-1,8-naphthyridin-2(1H)-one], for which the IC50 on B-Raf (V600E) (setting [1]) was 11 nM.

In the case of `O=C1CCc2c(Oc3ccc4c(c3)C3C(C4)C3c3nc4ccccc4s3)ccnc2N1` (racemic) [Compound 1.3, (±)-exo-5-((1-(benzo[d]thiazol-2-yl)-1,1a,6,6a-tetrahydrocyclopropa[a]inden-3-yl)oxy)-3,4-dihydro-1,8-naphthyridin-2(1H)-one], the IC50 at B-Raf (V600E) (setting [1]) came out at 88 nM; at C-Raf (Y340D/Y341D), 5.5 nM.

On to `O=C1CCc2c(Oc3ccc4c(c3)C3C(O4)C3c3nc4ccccc4[nH]3)ccnc2N1` (racemic) [Compound 2.1, (±)-exo-5-((1-(1H-benzo[d]imidazol-2-yl)-1a,6b-dihydro-1H-cyclopropa[b]benzofuran-5-yl)oxy)-3,4-dihydro-1,8-naphthyridin-2(1H)-one], for which the figures for the IC50 at B-Raf (V600E) (setting [1]) and against C-Raf (Y340D/Y341D) were 3.1 nM and 0.3 nM, respectively.

`O=C1CCc2c(Oc3ccc4c(c3)C3C(O4)C3c3nc4ccc(O)cc4[nH]3)ccnc2N1` (racemic) [Compound 2.27, (±)-exo-5-((1-(6-hydroxy-1H-benzo[d]imidazol-2-yl)-1a,6b-dihydro-1H-cyclopropa[b]benzofuran-5-yl)oxy)-3,4-dihydro-1,8-naphthyridin-2(1H)-one]: the IC50 on B-Raf (V600E) (setting [1]) was 2.5 nM; against C-Raf (Y340D/Y341D), below 0.25 nM.

On to `O=C1CCc2c(Oc3ccc4c(c3)C3C(O4)C3c3nc(-c4ccccc4)no3)ccnc2N1` (racemic) [Compound 2.29, (±)-exo-5-((1-(3-phenyl-1,2,4-oxadiazol-5-yl)-1a,6b-dihydro-1H-cyclopropa[b]benzofuran-5-yl)oxy)-3,4-dihydro-1,8-naphthyridin-2(1H)-one], for which the figures for the IC50 at B-Raf (V600E) (setting [1]) and against C-Raf (Y340D/Y341D) were 3.2 nM and below 0.25 nM, respectively.

Turning to `O=C1CCc2c(Oc3ccc4c(c3)C3C(O4)C3c3nc(-c4ccccc4)c[nH]3)ccnc2N1` (racemic) [Compound 2.30, (±)-exo-5-((1-(4-phenyl-1H-imidazol-2-yl)-1a,6b-dihydro-1H-cyclopropa[b]benzofuran-5-yl)oxy)-3,4-dihydro-1,8-naphthyridin-2(1H)-one], the IC50 on B-Raf (V600E) (setting [1]) was 0.72 nM; on C-Raf (Y340D/Y341D), below 0.25 nM.

`O=C1CCc2c(Oc3ccc4c(c3)C3C(O4)C3c3nc4cc(C(F)(F)F)ccc4n3CCO)ccnc2N1` (racemic) [Compound 2.34, (±)-exo-5-((1-(1-(2-hydroxyethyl)-5-(trifluoromethyl)-1H-benzo[d]imidazol-2-yl)-1a,6b-dihydro-1H-cyclopropa[b]benzofuran-5-yl)oxy)-3,4-dihydro-1,8-naphthyridin-2(1H)-one]: at B-Raf (V600E) (setting [1]), the IC50 is 30 nM.

Take `O=C1CCc2c(Oc3cc4c(cc3Cl)OC3C(c5nc6ccc(C(F)(F)F)cc6[nH]5)C43)ccnc2N1` (racemic) [Compound 2.36, (±)-exo-5-((4-chloro-1-(6-(trifluoromethyl)-1H-benzo[d]imidazol-2-yl)-1a,6b-dihydro-1H-cyclopropa[b]benzofuran-5-yl)oxy)-3,4-dihydro-1,8-naphthyridin-2(1H)-one]: the IC50 is 117 nM at B-Raf (V600E) (setting [1]) and 32 nM against C-Raf (Y340D/Y341D).

On C-Raf (Y340D/Y341D), `CNC(=O)c1cc(Oc2ccc3c(c2)C2C(O3)C2c2nc3ccc(C(F)(F)F)cc3[nH]2)ccn1` (racemic) [Compound 3.1, (±)-exo-N-methyl-4-((1-(6-(trifluoromethyl)-1H-benzo[d]imidazol-2-yl)-1a,6b-dihydro-1H-cyclopropa[b]benzofuran-5-yl)oxy)picolinamide] registered an IC50 of 6.5 nM.

Regarding `FC(F)(F)c1ccc2nc(C3C4Oc5ccc(Oc6ccncn6)cc5C43)[nH]c2c1` (racemic) [Compound 3.2, (±)-exo-2-(5-(pyrimidin-4-yloxy)-1a,6b-dihydro-1H-cyclopropa[b]benzofuran-1-yl)-6-(trifluoromethyl)-1H-benzo[d]imidazole], the IC50 on C-Raf (Y340D/Y341D) was 223 nM.

Turning to `FC(F)(F)c1ccc2nc(C3C4Oc5ccc(Oc6ccnc7[nH]ccc67)cc5C43)[nH]c2c1` (racemic) [Compound 3.3, (±)-exo-2-(5-((1H-pyrrolo[2,3-b]pyridin-4-yl)oxy)-1a,6b-dihydro-1H-cyclopropa[b]benzofuran-1-yl)-6-(trifluoromethyl)-1H-benzo[d]imidazole], the IC50 was found to be 522 nM on B-Raf (V600E) (setting [1]) and 104 nM at C-Raf (Y340D/Y341D).

In the case of `FC(F)(F)c1ccc2nc(C3C4Oc5ccc(Oc6ccnc(-c7nc(C(F)(F)F)c[nH]7)c6)cc5C43)[nH]c2c1` (racemic) [Compound 3.4, (±)-exo-6-(trifluoromethyl)-2-(5-((2-(4-(trifluoromethyl)-1H-imidazol-2-yl)pyridin-4-yl)oxy)-1a,6b-dihydro-1H-cyclopropa[b]benzofuran-1-yl)-1H-benzo[d]imidazole], the IC50 on B-Raf (V600E) (setting [1]) came to 291 nM; against C-Raf (Y340D/Y341D) it was 56 nM.

In the case of `FC(F)(F)c1ccc2nc(C3C4Oc5ccc(Oc6ccncc6)cc5C43)[nH]c2c1` (racemic) [Compound 3.6, (±)-exo-2-(5-(pyridin-4-yloxy)-1a,6b-dihydro-1H-cyclopropa[b]benzofuran-1-yl)-6-(trifluoromethyl)-1H-benzo[d]imidazole], the IC50 was 518 nM on B-Raf (V600E) (setting [1]) and 86 nM against C-Raf (Y340D/Y341D).

Regarding `O=C1Nc2nccc(Oc3ccc4c(c3)C3C(O4)C3c3nc4ccc(C(F)(F)F)cc4[nH]3)c2CO1` (racemic) [Compound 3.7, (±)-exo-5-((1-(6-(trifluoromethyl)-1H-benzo[d]imidazol-2-yl)-1a,6b-dihydro-1H-cyclopropa[b]benzofuran-5-yl)oxy)-1H-pyrido[2,3-d][1,3]oxazin-2(4H)-one], the IC50 was determined as 26 nM on B-Raf (V600E) (setting [1]) and 3.2 nM on C-Raf (Y340D/Y341D).

As to `O=C1CCc2c(Oc3ccc4c(c3)C3C(C4)C3C(=O)O)ccnc2N1` (racemic) [Intermediate I, (±)-exo-3-((7-Oxo-5,6,7,8-tetrahydro-1,8-naphthyridin-4-yl)oxy)-1,1a,6,6a-tetrahydrocyclopropa[a]indene-1-carboxylic acid], the IC50 on B-Raf (V600E) and against C-Raf (Y340D/Y341D) was above 5000 nM each time.

Regarding `O=C1CCc2c(Oc3ccc4c(c3)C3C(O4)C3C(=O)O)ccnc2N1` (racemic) [Intermediate II, (±)-exo-5-((7-Oxo-5,6,7,8-tetrahydro-1,8-naphthyridin-4-yl)oxy)-1a,6b-dihydro-1H-cyclopropa[b]benzofuran-1-carboxylic acid], the figures for the IC50 against B-Raf (V600E) and on C-Raf (Y340D/Y341D) were above 5000 nM and 2910 nM, respectively.

For the compound `O=C1CCc2c(Oc3ccc4c(c3)[C@H]3[C@@H](O4)[C@@H]3c3nc4ccc(C(F)(F)F)cc4[nH]3)ccnc2N1` [Compound 2.2a], the IC50 at B-Raf (V600E) (setting [1]) was found to be 6.7 nM; at C-Raf (Y340D/Y341D), 1.2 nM.

Turning to `O=C1CCc2c(Oc3ccc4c(c3)[C@@H]3[C@H](O4)[C@H]3c3nc4ccc(C(F)(F)F)cc4[nH]3)ccnc2N1` [Compound 2.2b, 5-(((1R,1aS,6bR)-1-(6-(trifluoromethyl)-1H-benzo[d]imidazol-2-yl)-1a,6b-dihydro-1H-cyclopropa[b]benzofuran-5-yl)oxy)-3,4-dihydro-1,8-naphthyridin-2(1H)-one], the IC50 on B-Raf (V600E) (setting [1]) turned out to be 53 nM; against C-Raf (Y340D/Y341D), 8.8 nM.

With `Cc1cc2[nH]c([C@@H]3[C@H]4Oc5ccc(Oc6ccnc7c6CCC(=O)N7)cc5[C@H]43)nc2cc1F` [Compound 2.4a], the IC50 at C-Raf (Y340D/Y341D) amounted to 0.54 nM.

Consider `O=C1CCc2c(Oc3ccc4c(c3)[C@@H]3[C@H](O4)[C@H]3c3nc4cc(Cl)c(C(F)(F)F)cc4[nH]3)ccnc2N1` [Compound 2.5a], for which, at C-Raf (Y340D/Y341D), half-maximal inhibition (IC50) was put at 21 nM.

At C-Raf (Y340D/Y341D), `O=C1CCc2c(Oc3ccc4c(c3)[C@H]3[C@@H](O4)[C@@H]3c3nc4cc(Cl)c(C(F)(F)F)cc4[nH]3)ccnc2N1` [Compound 2.5b] displayed an IC50 of 2.5 nM.

`N#Cc1ccc2nc(C3C4Oc5ccc(Oc6ccnc7c6CCC(=O)N7)cc5C43)[nH]c2c1` (stereo not shown) [Compound 2.6]: the IC50 on B-Raf (V600E) (setting [1]) stood at 22 nM; against C-Raf (Y340D/Y341D), 4.5 nM.

Consider `O=C1CCc2c(Oc3ccc4c(c3)C3C(O4)C3c3nc4ccc(F)cc4[nH]3)ccnc2N1` (stereo not shown) [Compound 2.7], for which the IC50 on B-Raf (V600E) (setting [1]) was 10 nM; against C-Raf (Y340D/Y341D), 2.1 nM.

`Cc1ccc2nc(C3C4Oc5ccc(Oc6ccnc7c6CCC(=O)N7)cc5C43)[nH]c2c1` (stereo not shown) [Compound 2.8]: the IC50 turned out to be 3.7 nM on B-Raf (V600E) (setting [1]) and 0.71 nM on C-Raf (Y340D/Y341D).

For `O=C1CCc2c(Oc3ccc4c(c3)C3C(O4)C3c3nc4ccncc4[nH]3)ccnc2N1` (stereo not shown) [Compound 2.9], the IC50 was 42 nM at B-Raf (V600E) (setting [1]) and 4.5 nM at C-Raf (Y340D/Y341D).

As for `O=C1CCc2c(Oc3ccc4c(c3)C3C(O4)C3c3nc4c(Cl)cc(C(F)(F)F)cc4[nH]3)ccnc2N1` (stereo not shown) [Compound 2.10], the IC50 stood at 80 nM on B-Raf (V600E) (setting [1]) and 25 nM against C-Raf (Y340D/Y341D).

On to `O=C1CCc2c(Oc3ccc4c(c3)C3C(O4)C3c3nc4cc5c(cc4[nH]3)CCC5)ccnc2N1` (stereo not shown) [Compound 2.21], for which the 50% inhibitory concentration (IC50) at B-Raf (V600E) (setting [1]) came to 1.2 nM.

The IC50 is the concentration that gives 50% inhibition.
